Assay results reported in patent publication EP4786486A1, “PEPTIDES FOR TREATING CARDIAC DISEASES” (Universidad Complutense De Madrid, priority 2023, dated 2025).

Legend:
human Nav1.5 channels = biological target: T1, human Nav1.5 channels (Homo sapiens, UniProt Q14524); assay: INa density, whole-cell patch-clamp in CHO cells co-transfected with Nav1.5 and the cDNA encoding the peptide; format: cell-based; settings: vs. cells transfected only with Nav1.5 channels, various membrane potentials, P<0.05
T1 construct: expressed in transfected cells; host or cells: CHO (Chinese hamster ovary) cells
Description: To analyse the effect of the peptides designed in example 1 on INa and IK1, the cDNA that encodes SEQ ID NO: 3 or SEQ ID NO: 4, described in SEQ ID NO: 5 and 20, respectively, was cloned into a pcDNA3.1^(+)® vector (Invitrogen) for transfection of Chinese hamster ovary (CHO) cells that were in turn transfected with the cDNA that encodes the human Nav1.5 channels (SEQ ID NO: 21). The CHO cells were further co-transfected with the EBO-pcD leu 2 vector (0.5 µg), which encodes the expression of the CD8 surface antigen. The subsequent addition of anti-CD8 antibody, bonded to Dynabeads M450® microspheres, allowed the cells that had been transfected to be identified. […] The currents were recorded at 20-22°C using an Axopatch 200B amplifier, filtered at half the sampling frequency and stored in a computer for further analysis. […] The capacitive current artefacts generated after the application of pulses from 0 mV to +10 mV were recorded at 50 kHz (filtered at 10 kHz) to calculate the capacitance of the cell, the access resistance and the input impedance. […] INa was recorded by applying 50 ms pulses from a holding potential of -120 mV to potentials between -80 and +50 mV in 5 mV increments. […]

[1] = test system: dissociated cardiomyocytes from Sham and TAC mice; assay: IK1 density in dissociated cardiomyocytes, murine TAC model of HFrEF; format: in vivo; settings: for IK1: administration of DECA-11 (AAV9)
Description: A murine model of CI with reduced ejection fraction (HFrEF) was used to analyse the effect of SEQ ID NO: 3 on the decrease in INa and IK1 caused by electrical remodelling associated with Cl. The mice are subjected to transverse aortic constriction (TAC) with ligation, and pressure overload leads to the occurrence of cardiac hypertrophy and Cl. The mice were produced at the Medical Research Centre of the University of Navarra (CIMA), under the direction of Dr Aránzazu González Miqueo.
Eight-week-old mice were administered 3.5×10^10 particles of adeno-associated virus type 9 that encoded either the fluorescent reporter td-Tomato (Aav-dt-T) alone, or the reporter and the peptide DECA-11. At 12 weeks of age, an echocardiographic check-up (baseline) was performed and at week 13 they underwent surgery in which the aorta was ligated (TAC animals) or not (Sham animals).
That same week they were sent to the UCM animal facility. Next, the mice were heparinised and anaesthetised and then sacrificed by cervical dislocation, at a rate of one per day, and a thoracotomy was performed to remove the heart which was mounted through the aorta into a cannula connected to a Langendorff apparatus for enzymatic dissociation of the cardiac myocytes. After removal of the heart, said heart was cannulated through the aorta and placed in a Langendorff apparatus. First, the hearts were perfused with modified Tyrode's solution (composition in mM: 136 NaCI, 4 KCI, 2 MgCl2, 1.8 CaCl2, 10 HEPES, 10 glucose, 3 pyruvic acid and 0.1 thiamine, pH=7.4 with NaOH) bubbled with oxygen and at 37°C for 3-5 minutes. Subsequently, they were perfused for another 8 minutes with the same solution without CaCl2. After 1-2 minutes, the heart stops beating. Next, they were perfused with Tyrode's solution without CaCl2 supplemented with 120 u/ml collagenase type II from Worthington and 0.5 u/ml protease XIV from Sigma. […]
As indicated above, IK1 was also recorded in mouse cardiomyocytes from all four groups. […] In fact, the density of IK1 in TAC animals pretreated with DECA-11 is not different from that recorded in Sham animals.

T1 sequence (Q14524 1-2015 isoform Q14524-2): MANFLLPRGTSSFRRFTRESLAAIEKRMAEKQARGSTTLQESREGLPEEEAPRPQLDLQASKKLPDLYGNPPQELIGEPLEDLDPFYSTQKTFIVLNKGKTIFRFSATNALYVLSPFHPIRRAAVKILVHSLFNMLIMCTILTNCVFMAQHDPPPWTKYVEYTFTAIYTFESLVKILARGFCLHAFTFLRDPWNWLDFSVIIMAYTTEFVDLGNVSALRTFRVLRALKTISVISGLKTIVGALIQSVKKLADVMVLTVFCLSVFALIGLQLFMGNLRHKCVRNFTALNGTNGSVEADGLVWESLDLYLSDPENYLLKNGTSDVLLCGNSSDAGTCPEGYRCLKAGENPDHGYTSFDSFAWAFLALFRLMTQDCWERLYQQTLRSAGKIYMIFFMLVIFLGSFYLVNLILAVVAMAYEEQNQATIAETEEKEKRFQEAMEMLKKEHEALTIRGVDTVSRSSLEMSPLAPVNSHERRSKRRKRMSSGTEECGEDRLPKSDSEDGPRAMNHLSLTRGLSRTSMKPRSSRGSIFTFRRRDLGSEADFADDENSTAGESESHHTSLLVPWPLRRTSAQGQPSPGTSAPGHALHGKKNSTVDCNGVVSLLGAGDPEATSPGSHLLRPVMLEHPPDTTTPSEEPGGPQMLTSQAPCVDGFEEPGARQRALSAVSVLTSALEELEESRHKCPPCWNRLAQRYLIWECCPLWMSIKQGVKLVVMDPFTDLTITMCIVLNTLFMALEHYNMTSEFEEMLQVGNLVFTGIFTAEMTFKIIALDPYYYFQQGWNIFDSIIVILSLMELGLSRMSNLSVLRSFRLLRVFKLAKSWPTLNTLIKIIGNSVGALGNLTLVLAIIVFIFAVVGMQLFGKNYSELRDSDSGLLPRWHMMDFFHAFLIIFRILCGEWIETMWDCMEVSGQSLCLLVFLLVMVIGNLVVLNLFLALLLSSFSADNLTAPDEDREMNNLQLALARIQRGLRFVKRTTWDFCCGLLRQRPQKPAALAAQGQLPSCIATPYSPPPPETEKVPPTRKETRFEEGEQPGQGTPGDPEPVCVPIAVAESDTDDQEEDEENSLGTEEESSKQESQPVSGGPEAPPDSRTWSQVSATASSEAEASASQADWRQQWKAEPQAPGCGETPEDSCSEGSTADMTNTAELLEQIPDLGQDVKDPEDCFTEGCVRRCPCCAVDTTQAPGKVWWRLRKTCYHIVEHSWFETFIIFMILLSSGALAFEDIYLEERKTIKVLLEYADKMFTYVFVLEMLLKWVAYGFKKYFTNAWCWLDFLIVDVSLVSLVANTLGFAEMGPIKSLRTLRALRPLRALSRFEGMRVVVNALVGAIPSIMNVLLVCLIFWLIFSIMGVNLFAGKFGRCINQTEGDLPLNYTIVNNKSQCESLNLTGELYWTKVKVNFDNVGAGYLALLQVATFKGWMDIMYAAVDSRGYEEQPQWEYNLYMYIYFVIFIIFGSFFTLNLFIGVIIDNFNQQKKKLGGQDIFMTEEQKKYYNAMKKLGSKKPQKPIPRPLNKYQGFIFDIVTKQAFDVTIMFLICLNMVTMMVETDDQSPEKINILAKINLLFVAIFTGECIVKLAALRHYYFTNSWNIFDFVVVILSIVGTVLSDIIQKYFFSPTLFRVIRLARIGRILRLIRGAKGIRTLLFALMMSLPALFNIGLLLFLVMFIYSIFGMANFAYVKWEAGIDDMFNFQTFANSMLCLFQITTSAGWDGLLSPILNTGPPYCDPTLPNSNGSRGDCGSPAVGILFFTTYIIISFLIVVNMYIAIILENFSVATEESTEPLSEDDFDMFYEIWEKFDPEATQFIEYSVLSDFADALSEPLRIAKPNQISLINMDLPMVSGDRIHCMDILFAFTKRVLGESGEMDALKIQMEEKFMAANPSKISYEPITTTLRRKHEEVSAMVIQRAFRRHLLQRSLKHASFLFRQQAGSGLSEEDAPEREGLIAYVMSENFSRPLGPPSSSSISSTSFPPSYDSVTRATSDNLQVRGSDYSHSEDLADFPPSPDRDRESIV

Sequence: RFTRESLAAIE (listed as Homo sapiens) [SEQ ID NO: 3, 11-amino acid peptide, amino acids 15-25 of human Nav1.5]
- density of INa (human Nav1.5 channels): significantly increase
- IK1 ([1]; Sham animals): significantly increases
- density of IK1 compared with that recorded in Sham animals ([1]; TAC animals pretreated with DECA-11 vs. Sham animals): not different
- IK1 ([1]; TAC animals): significantly increases
